The values below come from US8258140B2 (Astrazeneca AB, priority 2009, dated 2012).

In this test the target is T1, Androgen Receptor (AR) in the LNCaP prostate carcinoma cell line (Homo sapiens, UniProt P10275, T878A).
T1 construct: cell based immuno-fluorescence assay using the LNCaP prostate epithelial cell line; host or cells: LNCaP clone FGC
T1 sequence (P10275 1-920 T878A): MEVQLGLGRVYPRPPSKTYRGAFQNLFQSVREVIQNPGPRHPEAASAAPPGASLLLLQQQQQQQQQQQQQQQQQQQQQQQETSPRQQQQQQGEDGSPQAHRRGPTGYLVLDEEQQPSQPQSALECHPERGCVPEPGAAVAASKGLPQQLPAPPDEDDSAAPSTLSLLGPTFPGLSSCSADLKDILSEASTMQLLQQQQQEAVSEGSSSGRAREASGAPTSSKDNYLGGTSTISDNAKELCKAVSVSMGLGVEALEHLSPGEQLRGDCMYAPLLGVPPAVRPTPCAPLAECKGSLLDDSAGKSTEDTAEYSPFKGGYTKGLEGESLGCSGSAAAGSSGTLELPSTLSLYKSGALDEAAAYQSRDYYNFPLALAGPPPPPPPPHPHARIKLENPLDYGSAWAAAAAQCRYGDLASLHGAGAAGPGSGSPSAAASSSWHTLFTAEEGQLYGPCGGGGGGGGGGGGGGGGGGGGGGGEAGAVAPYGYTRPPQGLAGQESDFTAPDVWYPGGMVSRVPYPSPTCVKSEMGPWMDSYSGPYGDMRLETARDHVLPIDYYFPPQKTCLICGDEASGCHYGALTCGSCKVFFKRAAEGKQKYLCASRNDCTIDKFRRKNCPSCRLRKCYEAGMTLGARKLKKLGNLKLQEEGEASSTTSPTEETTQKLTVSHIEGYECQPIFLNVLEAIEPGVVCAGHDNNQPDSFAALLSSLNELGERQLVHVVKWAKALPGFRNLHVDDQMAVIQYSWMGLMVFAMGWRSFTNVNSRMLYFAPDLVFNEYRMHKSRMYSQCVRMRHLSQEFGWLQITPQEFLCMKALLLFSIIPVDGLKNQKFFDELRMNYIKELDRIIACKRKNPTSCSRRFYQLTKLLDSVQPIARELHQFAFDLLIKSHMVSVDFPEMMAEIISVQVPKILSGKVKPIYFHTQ
Put plainly: LNCaP Androgen Receptor Down-Regulation Cell Assay (immunofluorescence end point). Type of test: cell-based. The following applies: LNCaP cells, compound incubation 20-22 hours, concentration giving 50% reduction of the AR signal. The procedure, abridged: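 LNCaP cells (6.5×10^3/well) in phenol-red-free RPMI with 5% charcoal-stripped FBS were treated with compound dilutions for 20–22 h at 37 °C. They were then formaldehyde-fixed, permeabilised, blocked and immunostained for AR with monoclonal antibody AR441.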
What is called IC50 is the concentration needed to halve the response being measured. Take `CC(=O)N1CCN(CCCOc2ccc(C3CCN(C4=Nn5c(nnc5C(F)(F)F)CC4)CC3)cc2)CC1` [Example 4.1, 6-[4-[4-[3-(4-acetylpiperazin-1-yl)propoxy]phenyl]piperidin-1-yl]-3-(trifluoromethyl)-7,8-dihydro[1,2,4]triazolo[4,3-b]pyridazine]: the IC50 turned out to be 1.2 µM.
The compound `CC(=O)N1CCN(CCOc2ccc(C3CCN(C4=Nn5c(nnc5C(F)(F)F)CC4)CC3)cc2)CC1` [Example 5.1, 6-(4-{4-[2-(4-acetylpiperazin-1-yl)ethoxy]phenyl}piperidin-1-yl)-3-(trifluoromethyl)-7,8-dihydro[1,2,4]triazolo[4,3-b]pyridazine] registered an IC50 of 1.8 µM.
Compound `CN1CCN(CCOc2ccc(C3CCN(C4=Nn5c(nnc5C(F)(F)F)CC4)CC3)cc2)CC1=O` [Example 37, 1-methyl-4-[2-(4-{1-[3-(trifluoromethyl)-7,8-dihydro[1,2,4]triazolo[4,3-b]pyridazin-6-yl]piperidin-4-yl}phenoxy)ethyl]piperazin-2-one] came in with an IC50 of 1.7 µM.
Next, `CC(=O)N1CCN(CCOc2ccc(C3CCN(C4=Nn5c(nnc5C(F)(F)F)CC4)CC3)cc2)C[C@H]1C` [Example 51, 6-[4-(4-{2-[(3R)-4-acetyl-3-methylpiperazin-1-yl]ethoxy}phenyl)piperidin-1-yl]-3-(trifluoromethyl)-7,8-dihydro[1,2,4]triazolo[4,3-b]pyridazine]: 0.25 µM.
